Test results: patent US12029818B2 (CRITITECH, INC., priority 2020, dated 2024)

Tests used:
[1] = Particle size distribution (PSD) by laser diffraction, Malvern Mastersizer 3000; type: physicochemical
Procedure: PSD analyses were conducted on a Malvern Mastersizer™ 3000 using the Aero S™ dispersion unit according to manufacturer's instructions.

[2] = Specific surface area by BET sorptometry
Procedure: SSA determination analyses were conducted on a Porous Materials, Inc., Automated BET Sorptometer BET-202A according to manufacturer's instructions.

[3] = Shake-flask solubility in organic solvent/water mixtures; type: physicochemical; conditions: methanol and ethanol in water
Procedure: The drug was added in excess to each solution prepared in duplicate.

[4] = PXRD solid form and 14 day room temperature stability study

CS(=O)(=O)CCNCc1ccc(-c2ccc3ncnc(Nc4ccc(OCc5cccc(F)c5)c(Cl)c4)c3c2)o1 [Lapatinib, N-(3-chloro-4-{[(3-fluorophenyl)methyl]oxy}phenyl)-6-[5-({[2-(methylsulfonyl)ethyl]amino}methyl)-2-furanyl]-4-quinazolinamine]
PSD: Volume Dv-10 [1]: 0.839 μm
PSD: Volume Dv-50 [1]: 6.59 μm
PSD: Volume Dv-90 [1]: 335 μm
SSA ([2]; listed as Lapatinib Raw): 2.33 m^2/g
SSA ([2]; listed as unprocessed material): 1.60 m^2/g
Solubility dependence on organic solvent concentration [3]: concentration dependent solubility
Crystalline/amorphous form by PXRD [4]: crystalline
